Source: patent US11208421B2, “2-carboxypenam compound or salt thereof, pharmaceutical composition containing novel 2-carboxypenam compound or salt thereof, and applications thereof” (priority 2017, dated 2021)
Converted amounts (≈) assume the structure as drawn.

Columns and labels:
Type in all cases: cell-based
[1] = test system: Pseudomonas aeruginosa IMP-1-producing strain S-2838; test: Antibacterial activity evaluation test (MIC), broth microdilution, IMP-1-producing strain S-2838; conditions: for MIC: Pseudomonas aeruginosa, read-out: MIC Pseudomonas aeruginosa strain S-2838; for MIC Pseudomonas aeruginosa strain S-2838: IMP-1-producing strain, cation-adjusted Mueller Hinton medium, 35° C., 16 to 20 hours
Protocol: (§1) The minimum inhibitory concentration (MIC) was measured according to the Clinical and Laboratory Standards Institute (CLSI) standard method by using the following broth microdilution method.
(§2) As bacteria, a Pseudomonas aeruginosa strain ATCC 27853, a Pseudomonas aeruginosa AmpC derepression mutant strain S-3028, and a Pseudomonas aeruginosa IMP-1-producing strain S-2838 were used.
(§3) The Pseudomonas aeruginosa AmpC-derepression mutant strain S-3028 or the Pseudomonas aeruginosa IMP-1-producing strain S-2838 was cultured on a Mueller Hinton agar medium overnight, thereby preparing test bacterial cells. The obtained test bacterial cells were scraped off, suspended to yield 0.5 McFarland equivalence, and diluted 10-fold to obtain an inoculum. A cation-adjusted Mueller Hinton medium containing a test compound was inoculated with 0.0005 mL of the inoculum, and the cells were cultured at 35° C. for 16 to 20 hours. The minimum drug concentration at which the growth of bacteria was not visually observed was defined as MIC.

[2] = test system: Pseudomonas aeruginosa AmpC derepression mutant strain S-3028; test: Antibacterial activity evaluation test (MIC), broth microdilution, AmpC derepression mutant strain S-3028; conditions: for MIC: Pseudomonas aeruginosa, read-out: MIC Pseudomonas aeruginosa strain S-3028; for MIC Pseudomonas aeruginosa strain S-3028: AmpC derepression mutant, cation-adjusted Mueller Hinton medium, 35° C., 16 to 20 hours
Protocol: as §1, §2, §3

[3] = test system: Pseudomonas aeruginosa strain ATCC 27853; test: Antibacterial activity evaluation test (MIC), broth microdilution, strain ATCC 27853; conditions: for MIC: Pseudomonas aeruginosa, ATCC27853, read-out: MIC Pseudomonas aeruginosa strain ATCC 27853; for MIC Pseudomonas aeruginosa strain ATCC 27853: cation-adjusted Mueller-Hinton medium supplemented with 20 M of apotransferrin, 35° C., 16 to 20 hours
Protocol: as §1, §2, §3
The MIC of the Pseudomonas aeruginosa ATCC strain 27853 was measured in the same manner as described above by using a cation-adjusted Mueller-Hinton medium supplemented with […] of apotransferrin as a final concentration.

Structure (SMILES): CC(C)(O/N=C(\C(=O)N[C@@H]1C(=O)N2C[C@](SCCNC(=O)/C(=N\NC(N)=O)c3cc(O)c(O)cc3Cl)(C(=O)O)S[C@H]12)c1csc(N)n1)C(=O)O [Example 24, (3R,5R,6R)-6-((Z)-2-(2-aminothiazol-4-yl)-2-(((2-carboxypropan-2-yl)oxy)imino)acetamide)-3-((2-((Z)-2-(2-carbamoylhydrazinylidene)-2-(2-chloro-4,5-dihydroxyphenyl)acetamide)ethyl)thio)-7-oxo-4-thia-1-azabicyclo[3.2.0]heptane-3-carboxylic acid]
- MIC [1]: 4 µg/mL (≈ 5.17 µM)
- MIC [2]: 8 µg/mL (≈ 10.3 µM)
- MIC [3]: 0.5 µg/mL (≈ 0.646 µM)

Structure (SMILES): CC(C)(O/N=C(\C(=O)N[C@@H]1C(=O)N2C[C@](SC[C@H]3COCCN3C(=O)c3ccc(O)c(O)c3Cl)(C(=O)O)SC12)c1csc(N)n1)C(=O)O (stereo partly drawn) [Example 20, (3R,5R,6R)-6-((Z)-2-(2-aminothiazol-4-yl)-2-(((2-carboxypropan-2-yl)oxy)imino)acetamide)-3-((((R)-4-(2-chloro-3,4-dihydroxybenzoyl)morpholin-3-yl)methyl)thio)-7-oxo-4-thia-1-azabicyclo[3.2.0]heptane-3-carboxylic acid]
- MIC [1]: 4 µg/mL (≈ 5.37 µM)
- MIC [2]: 4 µg/mL (≈ 5.37 µM)
- MIC [3]: 0.5 µg/mL (≈ 0.671 µM)

Structure (SMILES): CO[C@@H](CNC(=O)/C(=N/NC(N)=O)c1ccc(O)c(O)c1Cl)CS[C@]1(C(=O)O)CN2C(=O)[C@@H](NC(=O)/C(=N\OC(C)(C)C(=O)O)c3csc(N)n3)[C@H]2S1 [Example 16, (3R,5R,6R)-6-((Z)-2-(2-aminothiazole-4-yl)-2-(((2-carboxypropan-2-yl)oxy)imino)acetamide)-3-(((S)-3-((E)-2-(2-carbamoylhydrazono)-2-(2-chloro-3,4-dihydroxyphenyl)acetamide)-2-methoxypropyl)thio)-7-oxo-4-thia-1-azabicyclo[3.2.0]heptane-3-carboxylic acid]
- MIC [1]: 8 µg/mL (≈ 9.78 µM)
- MIC [2]: 16 µg/mL (≈ 19.6 µM)
- MIC [3]: 0.5 µg/mL (≈ 0.611 µM)

Structure (SMILES): CC(C)(O/N=C(\C(=O)N[C@@H]1C(=O)N2C[C@](SCCNC(=O)/C(=N/N3CCOCC3)c3ccc(O)c(O)c3Cl)(C(=O)O)S[C@H]12)c1csc(N)n1)C(=O)O [Example 10, (3R,5R,6R)-6-((Z)-2-(2-aminothiazole-4-yl)-2-(((2-carboxypropan-2-yl)oxy)imino)acetamide)-3-((2-((E)-2-(2-chloro-3,4-dihydroxyphenyl)-2-(morpholinoimino)acetamide)ethyl)thio)-7-oxo-4-thia-1-azabicyclo[3.2.0]heptane-3-carboxylic acid]
- MIC [1]: 32 µg/mL (≈ 39.9 µM)
- MIC [2]: > 128 µg/mL
- MIC [3]: 1 µg/mL (≈ 1.25 µM)

Structure (SMILES): CC(C)(O/N=C(\C(=O)N[C@@H]1C(=O)N2C[C@](SCCNC(=O)/C(=N\O)c3ccc(O)c(O)c3Cl)(C(=O)O)S[C@H]12)c1csc(N)n1)C(=O)O [Example 4, (3R,5R,6R)-6-((Z)-2-(2-aminothiazol-4-yl)-2-(((2-carboxypropan-2-yl)oxy)imino)acetamide)-3-((2-((Z)-2-(2-chloro-3,4-dihydroxyphenyl)-2-(hydroxyimino)acetamide)ethyl)thio)-7-oxo-4-thia-1-azabicyclo[3.2.0]heptane-3-carboxylic acid]
- MIC Pseudomonas aeruginosa strain S-2838 [1]: 32 µg/mL (≈ 43.7 µM)
- MIC Pseudomonas aeruginosa strain S-3028 [2]: 8 µg/mL (≈ 10.9 µM)
- MIC Pseudomonas aeruginosa strain ATCC 27853 [3]: ≤0.0625 µg/mL

Structure (SMILES): CC(C)(O/N=C(\C(=O)N[C@@H]1C(=O)N2C[C@](SC3CN(C(=O)C(=NNC(N)=O)c4ccc(O)c(O)c4Cl)C3)(C(=O)O)S[C@H]12)c1csc(N)n1)C(=O)O [Example 11, (3R,5R,6R)-6-((Z)-2-(2-aminothiazol-4-yl)-2-(((2-carboxypropan-2-yl)oxy)imino)acetamide)-3-((1-((Z)-2-(2-carbamoylhydrazono)-2-(2-chloro-3,4-dihydroxyphenyl)acetyl)azetidin-3-yl)thio)-7-oxo-4-thia-1-azabicyclo[3.2.0]heptane-3-carboxylic acid]
- MIC [1]: 2 µg/mL (≈ 2.54 µM)
- MIC [2]: 1 µg/mL (≈ 1.27 µM)
- MIC [3]: ≤ 0.0625 µg/mL

Structure (SMILES): CC(C)(O/N=C(\C(=O)N[C@@H]1C(=O)N2C[C@](SCCNC(=O)/C(=N/NC(N)=O)c3ccc(O)c(O)c3Cl)(C(=O)O)S[C@H]12)c1csc(N)n1)C(=O)O [Example 13, (3R,5R,6R)-6-((Z)-2-(2-aminothiazole-4-yl)-2-(((2-carboxypropan-2-yl)oxy)imino)acetamide)-3-((2-((E)-2-(2-carbamoylhydrazono)-2-(2-chloro-3,4-dihydroxyphenyl)acetamide)ethyl)thio)-7-oxo-4-thia-1-azabicyclo[3.2.0]heptane-3-carboxylic acid]
- MIC [1]: 8 µg/mL (≈ 10.3 µM)
- MIC [2]: 16 µg/mL (≈ 20.7 µM)
- MIC [3]: ≤ 0.0625 µg/mL

Structure (SMILES): CN/N=C(\C(=O)NCCS[C@]1(C(=O)O)CN2C(=O)[C@@H](NC(=O)/C(=N\OC(C)(C)C(=O)O)c3csc(N)n3)[C@H]2S1)c1ccc(O)c(O)c1Cl [Example 8, (3R,5R,6R)-6-((Z)-2-(2-aminothiazol-4-yl)-2-(((2-carboxypropan-2-yl)oxy)imino)acetamide)-3-((2-((Z)-2-(2-chloro-3,4-dihydroxyphenyl)-2-(2-methylhydrazono)acetamide)ethyl)thio)-7-oxo-4-thia-1-azabicyclo[3.2.0]heptane-3-carboxylic acid]
- MIC [1]: 0.25 µg/mL (≈ 0.335 µM)
- MIC [2]: 2 µg/mL (≈ 2.68 µM)
- MIC [3]: ≤ 0.0625 µg/mL

Structure (SMILES): COC[C@H](CS[C@]1(C(=O)O)CN2C(=O)[C@@H](NC(=O)/C(=N\OC(C)(C)C(=O)O)c3csc(N)n3)C2S1)NC(=O)c1ccc(O)c(O)c1Cl (stereo partly drawn) [Example 19, (3R,5R,6R)-6-((Z)-2-(2-aminothiazol-4-yl)-2-(((2-carboxypropan-2-yl)oxy)imino)acetamide)-3-(((R)-2-(2-chloro-3,4-dihydroxybenzamide)-3-methoxypropyl)thio)-7-oxo-4-thia-1-azabicyclo[3.2.0]heptane-3-carboxylic acid]
- MIC [1]: 1 µg/mL (≈ 1.36 µM)
- MIC [2]: 1 µg/mL (≈ 1.36 µM)
- MIC [3]: 0.125 µg/mL (≈ 0.17 µM)

Structure (SMILES): COC[C@H](CS[C@]1(C(=O)O)CN2C(=O)[C@@H](NC(=O)/C(=N\OC(C)(C)C(=O)O)c3csc(N)n3)[C@H]2S1)NC(=O)C(=O)c1ccc(O)c(O)c1Cl [Example 3, (3R,5R,6R)-6-((Z)-2-(2-aminothiazol-4-yl)-2-(((2-carboxypropan-2-yl)oxy)imino)acetamide)-3-(((R)-2-(2-(2-chloro-3,4-dihydroxyphenyl)-2-oxoacetamide)-3-methoxypropyl)thio)-7-oxo-4-thia-1-azabicyclo[3.2.0]heptane-3-carboxylic acid]
- MIC Pseudomonas aeruginosa strain S-2838 [1]: 1 µg/mL (≈ 1.31 µM)
- MIC Pseudomonas aeruginosa strain S-3028 [2]: 0.5 µg/mL (≈ 0.657 µM)
- MIC Pseudomonas aeruginosa strain ATCC 27853 [3]: ≤0.0625 µg/mL
